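Each compound was tested at five concentrations against cells in 96-well plates for 48 hours. GI50 = concentration required for 50% inhibition of growth. Definition used: TGI = concentration required for complete inhibition of growth.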
Experiments:
Experiment in all cases: NCI-60 cell line screen, 48 h
[1] = test system: HT29 colon
[2] = test system: IGROV1 ovarian
[3] = test system: OVCAR-3 ovarian
[4] = test system: OVCAR-8 ovarian
[5] = test system: RXF 393 renal
[6] = test system: SK-MEL-5 melanoma
[7] = test system: SN12C renal
[8] = test system: SW-620 colon
[9] = test system: MDA-MB-435
[10] = test system: UACC-62 melanoma

Row | SMILES | TGI [1] | TGI [2] | TGI [3] | TGI [4] | TGI [5] | TGI [6] | TGI [7] | TGI [8] | GI50 [1] | GI50 [2] | GI50 [9] | TGI [9] | GI50 [3] | GI50 [4] | GI50 [5] | GI50 [6] | GI50 [7] | GI50 [8] | GI50 [10] | TGI [10]
1 | Brc1ccccc1C1SCc2nc3ccccc3n21 (centres undefined) | 60.9 µM | 70.6 µM | 26.7 µM | 57.1 µM | 23.3 µM | 18.7 µM | 25.8 µM | > 100 µM |  |  |  |  |  |  |  |  |  |  |  | 
2 | CC(=O)[C@@]12O[C@@H]1CC1C3CCC4=CC(O)CCC4(C)C3CCC12C (some centres undefined) | > 100 µM | > 100 µM | > 100 µM | 82.3 µM | 65.6 µM | > 100 µM | > 100 µM | > 100 µM | 47.9 µM | 31.8 µM | > 100 µM | > 100 µM | 78.5 µM | 23.3 µM | 28.6 µM | > 100 µM | 81 µM | 39.5 µM | > 100 µM | > 100 µM
3 | C=C(Br)C(C)(Br)CCC(Br)C(C)(C)Cl (centres undefined) | 40.7 µM | 18.3 µM | 33.5 µM | 35.7 µM | 37.5 µM | 32.4 µM | 39.5 µM | 30.4 µM |  |  |  | 41.9 µM |  |  |  |  |  |  |  | 40.7 µM
4 | O=C1NCC2(CCN(CCCC3(c4ccc(F)cc4)OCCO3)CC2)N1c1ccccc1 | > 100 µM | > 100 µM | > 100 µM | > 100 µM | > 100 µM | > 100 µM | > 100 µM | > 100 µM |  |  |  | > 100 µM |  |  |  |  |  |  |  | > 100 µM
5 | O=c1cc(-c2ccccc2)oc2cc(OCCCOc3ccc4c(=O)cc(-c5ccccc5)oc4c3)ccc12 | > 100 µM | > 100 µM | > 100 µM | > 100 µM | > 100 µM | > 100 µM | > 100 µM | > 100 µM |  |  |  |  |  |  |  |  |  |  |  | > 100 µM
6 | Cc1c2c(nn1-c1ccc(S(=O)(=O)/N=C3\SCCC(=O)N3c3ccccc3)cc1)-c1ccccc1CC2 | > 100 µM | > 100 µM | > 100 µM | > 100 µM | > 100 µM | > 100 µM | > 100 µM |  | > 100 µM | > 100 µM | > 100 µM | > 100 µM | > 100 µM | 89.6 µM | 70.9 µM | 95.9 µM | 87.5 µM |  | > 100 µM | > 100 µM
7 | CCOC(=O)NC(=O)c1cn(CCCO)c(=O)[nH]c1=O | > 100 µM | > 100 µM | > 100 µM | > 100 µM |  | > 100 µM | > 100 µM | > 100 µM |  |  |  |  |  |  |  |  |  |  |  | > 100 µM
8 | CCOC(=O)CC(=O)ON(C)C(C)=O | > 100 µM | > 100 µM | > 100 µM | > 100 µM |  | > 100 µM | > 100 µM | > 100 µM |  |  |  |  |  |  |  |  |  |  |  | > 100 µM
9 | COc1ccc([C@H]2[C@@H](F)C(=O)N2c2cc(OC)c(OC)c(OC)c2)cc1F | > 100 µM | > 100 µM | 0.492 µM | > 100 µM | 66 µM | 0.35 µM | > 100 µM | > 100 µM | 0.134 µM | 0.0946 µM |  |  | 0.0465 µM | 0.368 µM | 0.0398 µM | 0.0456 µM | 0.482 µM | 0.0562 µM |  | 
10 | Cc1ccc(NC(=O)c2cc3cc(N=Nc4ccccc4C(=O)O)ccc3oc2=O)cc1 | > 100 µM | > 100 µM | 74.2 µM | > 100 µM | > 100 µM | > 100 µM | > 100 µM | > 100 µM |  |  |  |  |  |  |  |  |  |  |  | 85 µM
11 | CCOC(=O)C(=C=C=C(c1ccccc1)c1ccccc1)C(=O)OCC | 41.7 µM | 37.9 µM | 31 µM | 50.3 µM | 32.8 µM |  | 42.4 µM | 51.2 µM |  |  |  |  |  |  |  |  |  |  |  | 37.7 µM
12 | O=[N+]([O-])C(/C=C(\Cl)n1nnc2ccccc21)=C(/Cl)n1nnc2ccccc21 | > 100 µM | > 100 µM | > 100 µM |  | > 100 µM | > 100 µM | > 100 µM |  |  |  |  | > 100 µM |  |  |  |  |  |  |  | > 100 µM
13 | C=C1NC(=O)C(C(C)CC)NC(=O)C2CSCC(NC(=O)CCC(=O)O)C(=O)NC(Cc3ccccc3)C(=O)NC(C)C(=O)NC(CC(C)CC)C(=O)NC(C(=O)NC(Cc3ccccc3)C(=O)N3CCCC3C(=O)N2)C(C)OC(=O)C(CO)NC(=O)C(C(O)COC)N(C)C(=O)C(C(C)C)NC(=O)C(CC(C)CC)NC1=O (centres undefined) | > 6 µM | > 6 µM |  | > 6 µM | > 6 µM | 0.427 µM | > 6 µM | > 6 µM | 0.0165 µM | 0.112 µM |  |  | 0.0118 µM | 0.0678 µM | 0.0136 µM | 0.00637 µM | 0.0707 µM | 0.0175 µM | 0.00311 µM | > 6 µM
14 | CCN1c2ccccc2C(C(SC)S(=O)(=O)c2ccc(C)cc2)c2c1[nH]c(=O)n(C)c2=O (centres undefined) | > 100 µM | > 100 µM | > 100 µM | > 100 µM |  | > 100 µM | > 100 µM | > 100 µM |  |  |  |  |  |  |  |  |  |  |  | > 100 µM
15 | CCc1cc(Cc2cc(CC)c(NC(=O)C(=O)Cc3ccccn3)c(CC)c2Cl)c(Cl)c(CC)c1NC(=O)C(=O)Cc1ccccn1 | > 100 µM | > 100 µM | > 100 µM | > 100 µM |  | > 100 µM | > 100 µM | 31.9 µM |  |  |  |  |  |  |  |  |  |  |  | > 100 µM
16 | COC(OC)C(C)CC(=O)N(C)C (centres undefined) | > 100 µM | > 100 µM | > 100 µM | > 100 µM |  | > 100 µM | > 100 µM | > 100 µM |  |  |  |  |  |  |  |  |  |  |  | > 100 µM
17 | Cc1cccc(NC(=O)Cn2cnc3sc(C(=O)OC(C)C)c(C)c3c2=O)c1 |  | > 50 µM | > 50 µM | > 50 µM | 22.7 µM | > 50 µM | 22.3 µM | > 50 µM |  | 16.3 µM | > 50 µM | > 50 µM | 33.4 µM | 17.4 µM | 7.1 µM | 20.7 µM | 7.66 µM | 33.5 µM | 8.78 µM | 24.3 µM
18 | OCCCCCNCc1cc2cc3c(cc2c2cc(OCc4ccccc4)ccc12)OCO3 | 3 µM |  | 3.14 µM | 2.8 µM | 2.2 µM | 2.8 µM | 13.4 µM | 2.69 µM | 1.5 µM |  | 1.66 µM | 3.02 µM | 1.68 µM | 1.48 µM | 1.04 µM | 1.48 µM | 3.4 µM | 1.39 µM | 1.71 µM | 3.08 µM
